In US11090391B2, “Protein nanocages with enhanced mucus penetration for targeted tissue and intracellular delivery” (The Johns Hopkins University, priority 2016, dated 2021):
“And” between values parts separate entries of the source, which are not always exact repeats. Identical values can stand only once.

What was measured:
[1] = test system: 3LL subcutaneous tumor; assay: Tumor growth, 3LL subcutaneous tumor model, tail vein injection; format: in vivo; conditions: day 10, injections at days 0, 2, 4, 6, 8
Protocol: […] was injected at the tail vein to assay the effect on tumor growth in a 3LL subcutaneous tumor model at several time points (0, 2, 4, 6, and 8 days post tumor development). At day 10 post tumor development, the tumor volume was reduced in the animals treated with AF, as well as in the animals treated with […] treatment.

[2] = test system: Hif-1α; assay: Hif-1α expression, western blotting in 3LL cells; format: cell-based, mouse; conditions: 0.625 to 2.5 μM AF, dose- and time-dependent
Protocol: The inhibition was dose-dependent, i.e., increasing the amount of AF in the free AF or that in […] from 0.625 μM to 1.25 μM, further to 2.5 μM, decreased the level of Hif-1α expression. The inhibition was also time-dependent, i.e., the inhibition was more prominent after a 6 hour-incubation than a 24 h-incubation, and even more prominent than a 48 h-incubation. Hif-1α, a marker for tumor hypoxia, is an indicator of cancer progression, metastasis, and drug resistance in clinic.

[3] = test system: 3LL-Luc orthotopic proximal lung cancer; assay: In vivo anti-cancer efficacy, orthotopic proximal lung cancer model; parameters: species or system mouse
Text: To evaluate the efficacy of PEG-FTn-DOX for treating lung airway cancer, an aggressive orthotopic mouse model was established of proximal lung cancer in inbred mice with intact host immunity. The model was established via intratracheal intubation of cancer cells into the tracheal and bronchial epithelium of lung airways (DuPage M, et al., Nature protocols, 4:1064-1072 (2009)), which was relevant to small cell lung cancer and squamous-cell lung cancer. Briefly, female C57BL/6 mice (6-8 weeks) were inoculated with 2.5×10^4 3 LL-Luc cells in 50 μL of DMEM medium via intratracheal intubation using a 22 G×1″ Safelet catheter (Exel International). Three days after the inoculation, bioluminescence signal in the lung was observed using a Xenogen IVIS Spectrum optical imaging system. […] The tumor growth was monitored at various time points using an IVIS imaging system and the bioluminescence signal in lung at different time points was quantitatively analyzed by the Living Image® (Caliper Life Sciences) software. The survival of mice was recorded daily, and data was analyzed by Kaplan-Meier survival curve.
The luciferase activity of 3LL-Luc was visualized and quantified by a Xenogen IVIS Spectrum optical imaging system. In brief, mice were anesthetized with 2% isoflurane in O2 and received intraperitoneal injection of D-luciferin solution in PBS at a dose of 150 mg/kg. Serial images were acquired between 5 and 20 minutes after the D-luciferin administration, and the bioluminescence signal intensity was quantified by the Living Image® software.

[4] = test system: 3LL-based tumor spheroids; assay: Penetration of DOX formulations in tumor spheroids; format: cell-based, mouse; conditions: 10 μM DOX concentration
Protocol: (§1) Multicellular tumor spheroid models consisting of different cancer cell lines were prepared by modifying a previously reported protocol (Friedrich J, et al, Nature Protocols, 4:309-324 (2009)). Briefly, 50 μL DMEM medium containing 1.5% agarose (wt/vol) was plated onto each well of a 96-well microtiter plate under sterile conditions. After the agarose solidifies, the plates were stored at room temperature until use. For the penetration study, 5×10^3 cells were seeded onto the agarose-plated 96-well plates. After 4-5 days culture to obtain multicellular tumor spheroids (400-500 μm in diameter), the tumor spheroids were carefully transferred into glass bottom dishes. […] After the 2-hour incubation, the cells were observed using confocal microscopy with Z-stack imaging at ˜10 μm intervals. […] The 3D images of spheroids were reconstructed by ZEN microscopy software (Carl Zeiss). For analyzing the penetration distance, the radial intensity distribution profile was determined using a custom-made MATLAB code where αtumor is the radius of individual spheroids and r is the radial distance from the spheroid center (r/αtumor=0 and 1 indicate the center and edge of the tumor spheroid, respectively). […] Quantification analysis of signal intensity was performed with ImageJ software (NIH).
(§2) Multicellular tumor spheroids were prepared and post-treatment analyzed as described in Example 4.

[5] = test system: 3LL cells; assay: Intracellular trafficking, confocal microscopy; format: cell-based, mouse
[6] = test system: 3LL tumor spheroids; assay: Growth delay of 3D cell spheroids; format: cell-based, mouse; conditions: 10 μM DOX, up to 11 days
Protocol: For cytotoxicity and growth delay experiments of 3D cell spheroids, 5×10^3 cells were seeded into the 96-well plates containing agarose. […] The diameters of tumor spheroids were recorded with a Zeiss Axiovert 200 phase-contrast microscope (Carl Zeiss) at the indicated time points.

[7] = Physicochemical properties (hydrodynamic diameter, ζ-potential, drug loading)
Protocol: The DOX conjugated PEG-FTn is denoted as FTn/FTn-PEG2k/DOX. […] The mixture was incubated for 1 hour and 1.5 mg EDC was added to activate a carboxyl group of each DOX-linker conjugate. The resultant compounds were analyzed using high-performance liquid chromatography (HPLC, Varian Inc.) equipped with a C18 reverse phase column. […] The final product was extensively dialyzed (10 kDa MWCO; Thermo Scientific) and purified with a PD-10 column.

[8] = test system: H460-based spheroids; assay: Penetration of DOX formulations in tumor spheroids; format: cell-based, human
Protocol: as §1, §2

[9] = test system: H1975-based spheroids; assay: Penetration of DOX formulations in tumor spheroids; format: cell-based, human
Protocol: as §1, §2

[10] = test system: A549-based spheroids; assay: Penetration of DOX formulations in tumor spheroids; format: cell-based, human
Protocol: as §1, §2

[11] = In vitro pH-sensitive DOX release, dialysis; format: physicochemical
Protocol: At designated times up to 6 days, 150 μL of solution outside the dialysis bag was collected and the same amount of fresh PBS was added back. After 3 days of incubation, the buffer was adjusted to pH 5.0 to induce the release of DOX from PEG-FTn. The concentrations of released free DOX at varying time points were measured by HPLC.

[12] = single intratracheal dose 0.25 mg/kg, 11 days after treatment

Substance: Acriflavine [AF]
- tumor volume [1]: reduced
- Hif-1α expression [2]: inhibited Hif-1α expression

Substance: FTn/FTn-PEG2k/DOX: DOX conjugated to FTn/FTn-PEG2k via acid-sensitive cis-aconityl linker
- progression-free survival ([3]; after 60 days): 60%
- decrease in bioluminescence signal intensity compared to free DOX-treated mice [3, 12]: 17 fold
- decrease in bioluminescence signal intensity compared to untreated mice [3, 12]: 40 fold
- distribution in spheroids (3D confocal images) [4]: uniformly distributed throughout the entire tumor spheroid
- mean fluorescence signal intensity in the entire spheroid vs free DOX [4]: significantly greater
- DOX found in cytoplasm compared with nucleus ([5]; 30 min after addition): ~95%
- DOX found in cytoplasm compared with nucleus ([5]; 2 h after addition): ~55%
- colocalization with lysosomes ([5]; 2 hours after addition): colocalized with lysosomes
- intracellular localization of DOX ([5]; 2 hours after addition): observed in both the cytoplasm and nucleus
- delay of spheroid growth compared to free DOX [6]: superior ability of delaying the growth
- DOX molecules per PEG-FTn [7]: 88±5 and 88 ± 22
- Hydrodynamic diameter [7]: 15.3 ± 3.2 nm
- ζ-potential [7]: −7.4 ± 2.8 mV
- penetration compared to free DOX [8]: Improved penetration
- penetration compared to free DOX [9]: Improved penetration
- penetration compared to free DOX [10]: Improved penetration
- maximum release of DOX ([11]; pH 5.0, after 4 hours): ~80%
- DOX released ([11]; pH 7.4, over 3 days, 37° C.): negligible
